Measured values taken from US12352767B2, “Method of treating cognitive decline associated with neurological diseases based on a decrease in FLT4 expression or activity” (University of Virginia Patent Foundation, priority 2018, dated 2025).
“Also recorded” adds a separate entry of the source.

Key:
[1] = system: meningeal lymphatic vessels; assay: Meningeal whole-mount immunostaining (LYVE-1/CD31): lymphatic vessel area and diameter, blood vessel coverage
Experimental: Selective ablation of the meningeal lymphatic vessels was achieved by i.c.m. injection and transcranial photoconversion of Visudyne® (verteporfin for injection, Valeant Ophtalmics). Visudyne was reconstituted following manufacturer instructions and 5 μL was injected i.c.m. following the previously described procedure. […] Each spot was irradiated with a light dose of 50 J/cm^2 at an intensity of 600 mW/cm^2 for a total of 83 s. Controls were injected with the same volume of Visudyne (without the photoconversion step) or sterile saline plus photoconversion (vehicle/photoconversion). The scalp skin was then sutured, the mice were subcutaneously injected with ketoprofen (2 mg/Kg) and allowed to recover on a heating pad until fully awake.
A hydrogel of 1.4% hyaluronic acid and 3% methylcellulose alone (vehicle) or with 200 ng/mL of encapsulated human VEGF-C (PeproTech) or VEGF-C156S (R&D Systems) was prepared as described elsewhere^49. Briefly, lyophilized, sterile methylcellulose (4000 cP, Sigma-Aldrich) and sterile hyaluronic acid (1500-1800 kDa, Sigma-Aldrich) were sequentially dissolved in sterile 0.1 M phosphate buffered saline (PBS) at 4° C. overnight. Lyophilized VEGF-C or VEGF-C156S were resuspended as particulate at 2000 ng/mL in 0.5% sterile methylcellulose in PBS. The particulate solution, or vehicle 0.5% methylcellulose, was mixed into the hydrogel pre-solution at 1:10, and loaded into a syringe for gelation at 37° C. […] The hydrogels were prepared on the day of the experiment and kept warm inside the individual syringes until applied onto the mouse's skull. […] An incision was made in the scalp skin and the skull was thinned at the junction of all sinuses and above the transverse sinus. The shear-thinning properties of the polymers allowed the extrusion of 100 μL of each hydrogel solution from the syringe into the thinned skull surface. The scalp skin was then sutured on top of the solidified hydrogel, the mice were subcutaneously injected with ketoprofen (2 mg/Kg) and allowed to recover on a heating pad until fully awake.
Mice were given a lethal dose of anesthetics by intraperitoneal (i.p.) injection of Euthasol (10% v/v in saline). When needed, CSF was collected from the cisterna magna using a 0.5 mm diameter borosilicate glass pipette with internal filament and immediately stored at −80° C. Mice were then transcardially perfused with ice cold PBS with heparin (10 U/mL). Deep cervical lymph nodes were dissected and drop fixed in 4% paraformaldehyde (PFA) for 12 hours at 4° C. After stripping the skin and muscle from the bone the head was collected and drop fixed in 4% PFA. […] The brains were kept in 4% PFA for additional 24 hours (48 hours in total). […]

brain parenchyma = assay: Brain perfusion/influx by CSF tracer OVA-A647 (brain sections); format: in vivo, mice; conditions: 7 days after Visudyne/photoconversion, vs control groups
Experimental: Mice were anaesthetized by intraperitoneal (i.p.) injection of a mixed solution of ketamine (100 mg/Kg) and xylazine (10 mg/Kg) in saline. The skin of the neck was shaved and cleaned with iodine and 70% ethanol, ophthalmic solution placed on the eyes to prevent drying and the mouse's head was secured in a stereotaxic frame. After making a skin incision, the muscle layers were retracted and the cisterna magna exposed. Using a Hamilton syringe (coupled to a 33-gauge needle), the volume of the desired tracer solution was injected into the CSF-filled cisterna magna compartment. For brain CSF influx and lymphatic drainage experiments, 2 or 5 μL of Alexa Fluor® 594 or 647 conjugated OVA (Thermo Fisher Scientific), at 0.5 mg/mL in artificial CSF (#597316, Harvard Apparatus U.K.), were injected at a rate of 2.5 μL/min. After injecting, the syringe was left in place for additional 2 min to prevent back-flow of CSF.

mice [2] = assay: Novel location recognition test; format: in vivo; conditions: Visudyne/photoconversion twice, adult mice
Experimental: Novel location recognition test was performed following a published protocol^52 with modifications. The experimental apparatus used in this study was the same square box made of opaque white plastic (35 cm×35 cm) used in the Open field test. The mice were first habituated to the apparatus for 15 min. Two different plastic objects (one red and the other blue and with different shapes) were then positioned in a defined spatial orientation, namely on each corner of the arena and 5 cm away from each adjacent arena wall. Mice were then placed in the arena (by a blinded experimenter), facing the wall farther away from the objects and allowed to explore the arena and objects for 10 min. Twenty-four hours later, the mice were placed in the same box with the same two objects, but one of them had switched location and was placed in a new quadrant, obliquely to the familiar object (novel location test). The time spent exploring the objects in the familiar and novel locations was also measured for 10 min. Exploration of an object was assumed when the mouse approached an object and touched it with its vibrissae, snout or forepaws and was measured using a video tracking software (TopScan, CleverSys, Inc.). The object location preference (% of time with object) was calculated as the exploration time of the objects in the familiar or in the novel location/total exploration time.

mice [3] = assay: Contextual fear conditioning test; format: in vivo; conditions: Visudyne/photoconversion twice
Experimental: This behavioral test was performed following a published protocol^53 with modifications. In this associative learning task, mice are presented with a neutral conditioned cue stimulus that is paired with an aversive unconditioned stimulus in a particular context. The mice learn that the chamber context and the cue stimulus predict the aversive stimulus and elicit a specific behavioral response, namely freezing. Mice were brought into the testing room to acclimate for at least 30 minutes before testing. For the test, we used two Habitest® chambers (Coulbourn Instruments, Allentown, PA, USA) with stainless grid floors attached to a shock generator for foot shock delivery and dimly illuminated with a white fluorescent light bulb. The chambers were cleaned and made odor-free before starting the experiment and between each session (or each mouse). The fear conditioning test was conducted over 2 days. […] On day 2, mice were tested and scored for conditioned fear to the training context for 3 minutes (context test), but with no presentation of the cue stimulus. […] Mice behaviour was recorded by a digital video camera mounted above the conditioning chamber and freezing was manually scored by a blinded experimenter using the Etholog V2.2 software. Parameters analysed included the percentage of time freezing during the 3 minutes of the context test and the last 3 minutes of the cued test.

## verteporfin [Visudyne]
[1]; Visudyne 5 μL i.c.m. + transcranial photoconversion, adult mice
  ablation of meningeal lymphatics (LYVE-1+ lymphatic vessels): loss of meningeal vessel staining; also recorded: effective ablation of meningeal lymphatics
[1]; Visudyne i.c.m. + transcranial photoconversion
  duration of meningeal lymphatic ablation: at least 7 days
Brain parenchyma
  brain perfusion by CSF tracer (OVA-A647 area fraction in brain sections): significantly lower; also recorded: significant decrease
Mice [2]
  NLR novel location task (time with object in novel location): No differences between the groups; also recorded: identical
  NLR training performance: identical
Mice [3]; adult mice
  CFC context test: no differences between groups
Mice [3]; vs control groups
  CFC cued test: statistically significant difference
